Reference: patent US9840474B2, “Pyrimidine compounds and use as anti-cervical cancer thereof” (SICHUAN UNIVERSITY, priority 2014, dated 2017)
Where two headings read alike, the source gives them in different places.

Columns and labels:
Type in all cases: cell-based
[1] = test system: human cervical carcinoma Caski cells; experiment: MTT cytotoxicity / inhibition test of cervical cancer Caski cells; settings: for OD: Caski cells, MTT; for IC50 value: cervical cancer Caski cells
From the text: (§1) In order to investigate in vitro effects of CH01 and CH02 against cervical cancer and HPV16 viruses, in the experiment, the cytotoxicity of above compounds, together with their effects on HPV16 E6 and E7 mRNA, is investigated by culture with human cervical cancer cells (HPV16 positive). Structures of test compounds are shown as follows:
(§2) [Experimental Method] • 1. Cytotoxicity: MTT method was used, and Reed-Muench method was used to calculate indexes median toxic concentration (TC50) and maximum non-toxic concentation (TC0). • 2. HPV16 E6 and E7 mRNA: The cell culture was treated for 48 h at maximum non-toxic concentration, and then the culture was terminated. Total RNA in cells was extracted, and effects of test samples on HPV16 E6 and E7 mRNA were measured using Real-time PCR method.
[Experimental Result] • 1. Inhibition Test of Cervical Cancer Caski Cells

HPV16 E6 mRNA = experiment: Real-time PCR of HPV16 E6 mRNA expression in Caski cells; settings: for effect on HPV E6 mRNA in Caski cells / inhibitory activity on E6 compared with positive control cidofovir / E6 One independent tests (inhibitory rate) / E6 Two independent tests (inhibitory rate): Caski cells; for E6 One independent tests (inhibitory rate) / E6 Two independent tests (inhibitory rate) / inhibition at 0.2 µg/mL: 48 h; for E6 One independent tests (inhibitory rate): test one; for E6 Two independent tests (inhibitory rate): test two; for inhibition at 0.2 µg/mL: Human papillomavirus 16, Ca-Ski
From the text: as §1, §2
(§3) Effects of Samples on Expression of HPV16 E6 mRNA and HPV16 E7 mRNA in Caski Cells

HPV16 E7 mRNA = experiment: Real-time PCR of HPV16 E7 mRNA expression in Caski cells; settings: for effect on HPV E7 mRNA in Caski cells / inhibitory activity on E7 compared with positive control cidofovir / E7 One independent tests (inhibitory rate) / E7 Two independent tests (inhibitory rate): Caski cells; for E7 One independent tests (inhibitory rate) / E7 Two independent tests (inhibitory rate) / inhibition at 0.2 µg/mL: 48 h; for E7 One independent tests (inhibitory rate): test one; for E7 Two independent tests (inhibitory rate): test two; for inhibition at 0.2 µg/mL: Human papillomavirus 16, Ca-Ski
From the text: as §1, §2, §3

4-(2-methoxybenzylamino)-5-formaldoxime-6-chloropyrimidine [CH02]
OD ([1]; 0.097656 μg/ml): 0.8357
OD ([1]; 0.195313 μg/ml): 0.78
OD ([1]; 0.390625 μg/ml): 0.4733
OD ([1]; 0.78125 μg/ml): 0.3837
OD ([1]; 1.5625 μg/ml): 0.313
OD ([1]; 3.125 μg/ml): 0.2943
OD ([1]; 6.25 μg/ml): 0.2727
OD ([1]; 12.5 μg/ml): 0.2743
OD ([1]; 25 μg/ml): 0.2803
OD ([1]; 50 μg/ml): 0.3087
OD ([1]; 100 μg/ml): 0.3757
OD ([1]; 200 μg/ml): 0.5557
IC50 value [1]: about 0.4 μg/ml
effect on HPV E6 mRNA in Caski cells (HPV16 E6 mRNA): showed inhibitory effects
inhibitory activity on E6 compared with positive control cidofovir (HPV16 E6 mRNA): better inhibitory activity than the positive control cidofovir
E6 One independent tests (inhibitory rate) (HPV16 E6 mRNA; 0.067 μg/ml): 0.461
E6 Two independent tests (inhibitory rate) (HPV16 E6 mRNA; 0.067 μg/ml): 0.481
E6 One independent tests (inhibitory rate) (HPV16 E6 mRNA; 0.2 μg/ml): 0.599
E6 Two independent tests (inhibitory rate) (HPV16 E6 mRNA; 0.2 μg/ml): 0.549
effect on HPV E7 mRNA in Caski cells (HPV16 E7 mRNA): showed inhibitory effects
inhibitory activity on E7 compared with positive control cidofovir (HPV16 E7 mRNA): better inhibitory activity than the positive control cidofovir
E7 One independent tests (inhibitory rate) (HPV16 E7 mRNA; 0.067 μg/ml): 0.484
E7 Two independent tests (inhibitory rate) (HPV16 E7 mRNA; 0.067 μg/ml): 0.488
E7 One independent tests (inhibitory rate) (HPV16 E7 mRNA; 0.2 μg/ml): 0.516
E7 Two independent tests (inhibitory rate) (HPV16 E7 mRNA; 0.2 μg/ml): 0.526

4-(4-tert-butylbenzylamino)-5-formaldoxime-6-chloropyrimidine [CH01]
OD ([1]; 0.097656 μg/ml): 0.8367
OD ([1]; 0.195313 μg/ml): 0.7847
OD ([1]; 0.390625 μg/ml): 0.6353
OD ([1]; 0.78125 μg/ml): 0.5667
OD ([1]; 1.5625 μg/ml): 0.488
OD ([1]; 3.125 μg/ml): 0.4667
OD ([1]; 6.25 μg/ml): 0.4117
OD ([1]; 12.5 μg/ml): 0.3033
OD ([1]; 25 μg/ml): 0.283
OD ([1]; 50 μg/ml): 0.28
OD ([1]; 100 μg/ml): 0.2967
OD ([1]; 200 μg/ml): 0.4373
IC50 value [1]: about 1.5 μg/ml
effect on HPV E6 mRNA in Caski cells (HPV16 E6 mRNA): showed inhibitory effects
inhibitory activity on E6 compared with positive control cidofovir (HPV16 E6 mRNA): better inhibitory activity than the positive control cidofovir
E6 One independent tests (inhibitory rate) (HPV16 E6 mRNA; 0.067 μg/ml): 0.489
E6 Two independent tests (inhibitory rate) (HPV16 E6 mRNA; 0.067 μg/ml): 0.494
E6 One independent tests (inhibitory rate) (HPV16 E6 mRNA; 0.2 μg/ml): 0.577
E6 Two independent tests (inhibitory rate) (HPV16 E6 mRNA; 0.2 μg/ml): 0.553
effect on HPV E7 mRNA in Caski cells (HPV16 E7 mRNA): showed inhibitory effects
inhibitory activity on E7 compared with positive control cidofovir (HPV16 E7 mRNA): better inhibitory activity than the positive control cidofovir
E7 One independent tests (inhibitory rate) (HPV16 E7 mRNA; 0.067 μg/ml): 0.488
E7 Two independent tests (inhibitory rate) (HPV16 E7 mRNA; 0.067 μg/ml): 0.455
E7 One independent tests (inhibitory rate) (HPV16 E7 mRNA; 0.2 μg/ml): 0.484
E7 Two independent tests (inhibitory rate) (HPV16 E7 mRNA; 0.2 μg/ml): 0.449

Nc1ccn(C[C@@H](CO)OCP(=O)(O)O)c(=O)n1 [cidofovir, reference compound]
inhibition at 0.2 µg/mL (HPV16 E6 mRNA; read-out: E6 One independent tests (inhibitory rate)): 32.6%
inhibition at 0.2 µg/mL (HPV16 E6 mRNA; read-out: E6 Two independent tests (inhibitory rate)): 33.6%
inhibition at 0.2 µg/mL (HPV16 E7 mRNA; read-out: E7 One independent tests (inhibitory rate)): 32.1%
inhibition at 0.2 µg/mL (HPV16 E7 mRNA; read-out: E7 Two independent tests (inhibitory rate)): 32.4%
